In patent US12391697B2, “Condensed bi-heterocycles as inhibiting agents for Bruton's tyrosine kinase” (BIOGEN MA INC., priority 2019, dated 2025):
Where a name gives a salt, the structure may show the parent alone.

These compounds were tested against BTK (Homo sapiens (Human), UniProt Q06187) (assay: In Vitro BTK Kinase Assay: Btk-PolyGAT-LS Assay). Conditions: active BTK enzyme 0.25 nM, ATP 10 μM, polyGAT 100 nM, 30 minutes.
Sequence of BTK (Q06187 whole entry): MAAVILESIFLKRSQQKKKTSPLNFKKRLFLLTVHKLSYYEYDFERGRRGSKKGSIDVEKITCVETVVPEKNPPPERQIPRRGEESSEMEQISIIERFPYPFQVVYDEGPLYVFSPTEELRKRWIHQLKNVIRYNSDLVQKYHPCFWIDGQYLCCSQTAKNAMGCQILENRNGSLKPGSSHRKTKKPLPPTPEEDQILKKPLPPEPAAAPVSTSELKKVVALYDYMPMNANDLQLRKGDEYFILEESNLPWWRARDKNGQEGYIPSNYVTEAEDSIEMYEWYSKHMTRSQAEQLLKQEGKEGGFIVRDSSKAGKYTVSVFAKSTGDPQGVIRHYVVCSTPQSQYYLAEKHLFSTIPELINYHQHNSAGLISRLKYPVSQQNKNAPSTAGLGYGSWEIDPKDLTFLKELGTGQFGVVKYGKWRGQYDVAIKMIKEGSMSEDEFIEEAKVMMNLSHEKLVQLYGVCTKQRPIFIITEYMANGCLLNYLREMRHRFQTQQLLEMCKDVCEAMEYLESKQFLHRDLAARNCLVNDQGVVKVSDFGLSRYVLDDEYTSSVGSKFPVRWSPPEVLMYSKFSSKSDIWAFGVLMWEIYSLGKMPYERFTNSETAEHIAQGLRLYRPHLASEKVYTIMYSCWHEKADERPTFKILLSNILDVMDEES
Assay type: biochemical
Method in brief: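 Recombinant BTK (0.25 nM) phosphorylating 100 nM polyGAT at 10 μM ATP in Tris-HCl pH 7.5 buffer with MgCl2, DTT, Triton X-100 and casein, 30 min, then EDTA stop.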
CC(C)(C)c1noc(C(=O)NCc2ccc(-c3ncnn4cc(N5CCOCC5)cc34)c(F)c2Cl)n1 [Example 14, 3-(tert-butyl)-N-(2-chloro-3-fluoro-4-(6-morpholinopyrrolo[2,1-f][1,2,4]triazin-4-yl)benzyl)-1,2,4-oxadiazole-5-carboxamide trifluoroacetate] gave an IC50 of at most 1 nM.
Compound COc1c(CNC(=O)c2nc(C(C)(C)C)no2)ccc(-c2ncnn3cc(-c4cnn(C)c4)cc23)c1F [Example 45, 3-(tert-butyl)-N-(3-fluoro-2-methoxy-4-(6-(1-methyl-1H-pyrazol-4-yl)pyrrolo[2,1-f][1,2,4]triazin-4-yl)benzyl)-1,2,4-oxadiazole-5-carboxamide] has an IC50 of at most 1 nM.
For Cc1cc(-c2ccnc3cc(-c4cnn(C)c4)nn23)ccc1CNC(=O)c1noc(C(C)(C)C)n1 [Example 16, 5-(tert-butyl)-N-(2-methyl-4-(2-(1-methyl-1H-pyrazol-4-yl)pyrazolo[1,5-a]pyrimidin-7-yl)benzyl)-1,2,4-oxadiazole-3-carboxamide trifluoroacetate], the IC50 was at most 1 nM.
For CC(C)(C)c1nc(C(=O)NCc2ccc(-c3ncnn4cc(N5CCOCC5)cc34)cc2Cl)no1 [Example 15, 5-(tert-butyl)-N-(2-chloro-4-(6-morpholinopyrrolo[2,1-f][1,2,4]triazin-4-yl)benzyl)-1,2,4-oxadiazole-3-carboxamide trifluoroacetate], the IC50 was at most 1 nM.
Cc1cc(-c2ncnn3cc(N4CCO[C@H](C)C4)cc23)ccc1CNC(=O)c1noc(C(C)(C)C)n1 (single isomer, unassigned) [Example 30] showed an IC50 of at most 1 nM.
Work on CC(C)(C)c1nc(C(=O)NCc2cc(F)c(-c3ncnn4cc(N5CCOCC5)cc34)cc2Cl)no1 [Example 1, 5-tert-butyl-N-[[2-chloro-5-fluoro-4-(6-morpholinopyrrolo[2,1-f][1,2,4]triazin-4-yl)phenyl]methyl]-1,2,4-oxadiazole-3-carboxamide] yielded an IC50 of at most 1 nM.
For Cc1cc(-c2ncnn3cc(N4CCN(C5COC5)CC4)cc23)ccc1CNC(=O)c1noc(C(C)(C)C)n1 [Example 32, 5-(tert-butyl)-N-(2-methyl-4-(6-(4-(oxetan-3-yl)piperazin-1-yl)pyrrolo[2,1-f][1,2,4]triazin-4-yl)benzyl)-1,2,4-oxadiazole-3-carboxamide trifluoroacetate], the IC50 was at most 1 nM.
For COCCn1cc(-c2cc3c(-c4ccc(CNC(=O)c5noc(C(C)(C)C)n5)c(C)c4)ncnn3c2)cn1 [Example 7, 5-(tert-butyl)-N-(4-(6-(1-(2-methoxyethyl)-1H-pyrazol-4-yl)pyrrolo[2,1-f][1,2,4]triazin-4-yl)-2-methylbenzyl)-1,2,4-oxadiazole-3-carboxamide], the IC50 was at most 1 nM.
COc1c(CNC(=O)c2nc(C(C)(C)C)no2)ccc(-c2ncnn3cc(N4CCOCC4)cc23)c1F [Example 203] showed an IC50 of at most 1 nM.
Work on CC(C)(C)c1nc(C(=O)NCc2ccc(-c3ncnn4cc(N5CCOCC5)cc34)cc2C(F)F)co1 [Example 198] yielded an IC50 of at most 1 nM.
Work on Cc1cc(-c2ncnn3cc(N4CCN(C)C[C@H]4C)cc23)ccc1CNC(=O)c1noc(C(C)(C)C)n1 [Example 92] yielded an IC50 of 1 to 10 nM.
CC(C)(C)c1nnc(C(=O)NCc2ccc(-c3ncnn4cc(N5CCOCC5)cc34)c(F)c2C(F)F)o1 [Example 199] gave an IC50 of 1 to 10 nM.
For Cc1cc(-c2ncnn3cc(N4CCO[C@H](C)C4)cc23)ccc1CNC(=O)c1nnn(C(C)(C)C)n1 (single isomer, unassigned) [Example 139], the IC50 was at most 1 nM.
Cc1cc(-c2ncnn3cc(N4CC[C@H](F)C4)cc23)ccc1CNC(=O)c1noc(C(C)(C)C)n1 (single isomer, unassigned) [Example 141] gave an IC50 of at most 1 nM.
Cc1cc(-c2ncnn3cc(C4=CCOCC4)cc23)ccc1CNC(=O)c1nnn(C(C)(C)C)n1 [Example 128] gave an IC50 of at most 1 nM.
Cc1cc(-c2ncnn3cc(-c4cnn(C(F)F)c4)cc23)ccc1CNC(=O)c1noc(C(C)(C)C)n1 [Example 107] showed an IC50 of at most 1 nM.
For CC(C)(C)n1cc(C(=O)NCc2ccc(-c3ncnn4cc(-c5cnn(CC(F)F)c5)cc34)cc2C(F)F)cn1 [Example 209], the IC50 was at most 1 nM.
Cc1c(CNC(=O)c2noc(C(C)(C)C)n2)cc(F)c(-c2ncnn3cccc23)c1F [Example 63, 5-(tert-butyl)-N-(3,5-difluoro-2-methyl-4-(pyrrolo[2,1-f][1,2,4]triazin-4-yl)benzyl)-1,2,4-oxadiazole-3-carboxamide hydrochloride] showed an IC50 of 1 to 10 nM.
For Cc1cc(-c2ncnn3cc(C4COC4)cc23)ccc1CNC(=O)c1noc(C(C)(C)C)n1 [Example 71, 5-(tert-butyl)-N-(2-methyl-4-(6-(oxetan-3-yl)pyrrolo[2,1-f][1,2,4]triazin-4-yl)benzyl)-1,2,4-oxadiazole-3-carboxamide trifluoroacetate], the IC50 was over 10 nM.
CC(C)(C)c1noc(C(=O)NCc2ccc(-c3ncnn4cc(N5CCOCC5)cc34)cc2Cl)n1 [Example 159] gave an IC50 of at most 1 nM.
In the case of Cc1cc(-c2ncnn3cc(N4C[C@@H](F)[C@@H](F)C4)cc23)ccc1CNC(=O)c1noc(C(C)(C)C)n1 [Example 122], the IC50 is reported as at most 1 nM.
Cc1cc(-c2ncnn3cc(N4CCOC(C)(C)C4)cc23)ccc1CNC(=O)c1noc(C(C)(C)C)n1 [Example 78, 5-(tert-butyl)-N-(4-(6-(2,2-dimethylmorpholino)pyrrolo[2,1-f][1,2,4]triazin-4-yl)-2-methylbenzyl)-1,2,4-oxadiazole-3-carboxamide hydrochloride] gave an IC50 of at most 1 nM.
With Cc1cc(-c2ncnn3cc(-c4cnn(C)c4)cc23)ccc1CNC(=O)c1cnn(C(C)(C)C)c1 [Example 167] the IC50 was at most 1 nM.
Cc1cc(-c2ncnn3cc(N4CCO[C@H](C)C4)cc23)ccc1CNC(=O)c1nc(C(C)(C)C)no1 (single isomer, unassigned) [Example 137] was tested, and the IC50 was at most 1 nM.
In the case of Cc1cc(-c2ncnn3cc(-c4cnco4)cc23)ccc1CNC(=O)c1noc(C(C)(C)C)n1 [Example 110], the IC50 is reported as at most 1 nM.
Cn1cc(-c2cc3c(-c4ccc(CNC(=O)c5cnn(C(C)(C)C)c5)c(C(F)(F)F)c4)ncnn3c2)cn1 [Example 61, 1-(tert-butyl)-N-(4-(6-(1-methyl-1H-pyrazol-4-yl)pyrrolo[2,1-f][1,2,4]triazin-4-yl)-2-(trifluoromethyl)benzyl)-1H-pyrazole-4-carboxamide] showed an IC50 of at most 1 nM.
Cc1cc(-c2cc3c(-c4ccc(CNC(=O)c5nc(C(C)(C)C)no5)c(C)c4)ncnn3c2)cnn1 [Example 171] showed an IC50 of at most 1 nM.
Work on CC(C)(C)c1nc(C(=O)NCc2ccc(-c3ncnn4cccc34)cc2C(F)F)no1 [Example 181] yielded an IC50 of 1 to 10 nM.
Compound Cc1cc(-c2ncnn3cc(N4CCO[C@H](C)C4)cc23)ccc1CNC(=O)c1coc(C(C)(C)C)n1 (single isomer, unassigned) [Example 143] has an IC50 of at most 1 nM.
Cc1c(CNC(=O)c2nc(C(C)(C)C)no2)ccc(-c2ncnn3cc(N4CCN(C)[C@H](C)C4)cc23)c1F (single isomer, unassigned) [Example 25] gave an IC50 of at most 1 nM.
Cc1cc(-c2ncnn3cc(-c4cnn(C5COC5)c4)cc23)ccc1CNC(=O)c1noc(C(C)(C)C)n1 [Example 104] showed an IC50 of at most 1 nM.
With Cc1cc(-c2ncnn3cccc23)ccc1CNC(=O)c1nc(C(C)(C)C)no1 [Example 152] the IC50 was 1 to 10 nM.
COc1c(CNC(=O)c2noc(C(C)(C)C)n2)ccc(-c2ncnn3cc(N4CCOCC4)cc23)c1F [Example 223] showed an IC50 of at most 1 nM.
CCn1cc(-c2cc3c(-c4ccc(CNC(=O)c5noc(C(C)(C)C)n5)c(C)c4)ncnn3c2)cn1 [Example 236] was tested, and the IC50 was at most 1 nM.
Cn1cc(-c2cc3c(-c4ccc(CNC(=O)c5nc(C(C)(C)C)no5)c(C(F)F)c4F)ncnn3c2)cn1 [Example 194] was tested, and the IC50 was at most 1 nM.
For Cc1cc(-c2ncnn3cc(-c4cnn(C)c4C)cc23)ccc1CNC(=O)c1noc(C(C)(C)C)n1 [Example 109], the IC50 was at most 1 nM.
Compound CC(C)(C)c1nc(C(=O)NCc2ccc(-c3ncnn4cc(N5CCOCC5)cc34)c(F)c2C(F)F)no1 [Example 221] has an IC50 of at most 1 nM.
In the case of Cc1cc(-c2ncnn3cc(C(=O)N4CCN(C)CC4)cc23)ccc1CNC(=O)c1noc(C(C)(C)C)n1 [Example 216], the IC50 is reported as over 10 nM.
Cc1cc(-c2ncnn3cc(N4CCN(C5COC5)C[C@@H]4C)cc23)ccc1CNC(=O)c1noc(C(C)(C)C)n1 [Example 75, (S)-5-(tert-butyl)-N-(2-methyl-4-(6-(2-methyl-4-(oxetan-3-yl)piperazin-1-yl)pyrrolo[2,1-f][1,2,4]triazin-4-yl)benzyl)-1,2,4-oxadiazole-3-carboxamide] showed an IC50 of 1 to 10 nM.
Cc1cc(-c2ncnn3cc(N4CCO[C@@H](C)C4)cc23)ccc1CNC(=O)c1nnn(C(C)(C)C)n1 (single isomer, unassigned) [Example 140] was tested, and the IC50 was 1 to 10 nM.
Cc1cc(-c2ncnn3cc(-c4cnn(C5CC5)c4)cc23)ccc1CNC(=O)c1noc(C(C)(C)C)n1 [Example 237] showed an IC50 of at most 1 nM.

What follows are compounds tested on CD69 expression on CD19+ B cells in whole blood (assay: In Vitro Whole Blood CD69 Assay). Conditions: Homo sapiens, B-cell.
Assay type: cell-based, Human
Method: In Vitro Whole Blood CD69 Assay
Human heparinized venous blood from health donors was aliquoted into 96-well plate and “spiked” with serial dilutions of formula I compounds in DMSO or with DMSO without drug. The final concentration of DMSO in all wells was 0.1%. The plate was incubated at 37° C. for 30 min. Drug-containing samples were stimulated with 0.1 μg/mL mouse anti-human IgD-dextran (1A62) or 20 μg/mL polyclonal rabbit F(ab′)2 anti-human IgD. Phosphate-buffered saline (PBS) was added to the negative control unstimulated sample and the plates were incubated overnight (18 to 22 hours) at 37° C. Cells were stained with fluorochrome-conjugated anti-CD19 and anti-CD69 antibodies. Lyse/fix solution was used to remove red blood cells by hypotonic lysis and to fix the remaining cells, which were then analyzed by flow cytometry. CD19+ B cells were gated and analyzed for CD69 expression. The percentage of B cells expressing CD69 was plotted versus the log 10 of the concentration of the drug and the best-fit curves (variable Hill slope) were generated to obtain the IC50 value.
For CC(C)(C)c1noc(C(=O)NCc2ccc(-c3ncnn4cc(N5CCOCC5)cc34)c(F)c2Cl)n1 [Example 14, 3-(tert-butyl)-N-(2-chloro-3-fluoro-4-(6-morpholinopyrrolo[2,1-f][1,2,4]triazin-4-yl)benzyl)-1,2,4-oxadiazole-5-carboxamide trifluoroacetate], the IC50 was 100 to 1000 nM.

Same assay, conditions: Homo sapiens, B-cell, human heparinized whole blood, anti-human IgD stimulation, percentage of CD19+ B cells expressing CD69; read-out: IC50
COc1c(CNC(=O)c2nc(C(C)(C)C)no2)ccc(-c2ncnn3cc(-c4cnn(C)c4)cc23)c1F [Example 45, 3-(tert-butyl)-N-(3-fluoro-2-methoxy-4-(6-(1-methyl-1H-pyrazol-4-yl)pyrrolo[2,1-f][1,2,4]triazin-4-yl)benzyl)-1,2,4-oxadiazole-5-carboxamide] gave an IC50 of 100 to 1000 nM.
With Cc1cc(-c2ccnc3cc(-c4cnn(C)c4)nn23)ccc1CNC(=O)c1noc(C(C)(C)C)n1 [Example 16, 5-(tert-butyl)-N-(2-methyl-4-(2-(1-methyl-1H-pyrazol-4-yl)pyrazolo[1,5-a]pyrimidin-7-yl)benzyl)-1,2,4-oxadiazole-3-carboxamide trifluoroacetate] the IC50 was 100 to 1000 nM.
In the case of CC(C)(C)c1nc(C(=O)NCc2ccc(-c3ncnn4cc(N5CCOCC5)cc34)cc2Cl)no1 [Example 15, 5-(tert-butyl)-N-(2-chloro-4-(6-morpholinopyrrolo[2,1-f][1,2,4]triazin-4-yl)benzyl)-1,2,4-oxadiazole-3-carboxamide trifluoroacetate], the IC50 is reported as 100 to 1000 nM.
In the case of Cc1cc(-c2ncnn3cc(N4CCO[C@H](C)C4)cc23)ccc1CNC(=O)c1noc(C(C)(C)C)n1 (single isomer, unassigned) [Example 30], the IC50 is reported as 100 to 1000 nM.
In the case of CC(C)(C)c1nc(C(=O)NCc2cc(F)c(-c3ncnn4cc(N5CCOCC5)cc34)cc2Cl)no1 [Example 1, 5-tert-butyl-N-[[2-chloro-5-fluoro-4-(6-morpholinopyrrolo[2,1-f][1,2,4]triazin-4-yl)phenyl]methyl]-1,2,4-oxadiazole-3-carboxamide], the IC50 is reported as over 1000 nM.
Cc1cc(-c2ncnn3cc(N4CCN(C5COC5)CC4)cc23)ccc1CNC(=O)c1noc(C(C)(C)C)n1 [Example 32, 5-(tert-butyl)-N-(2-methyl-4-(6-(4-(oxetan-3-yl)piperazin-1-yl)pyrrolo[2,1-f][1,2,4]triazin-4-yl)benzyl)-1,2,4-oxadiazole-3-carboxamide trifluoroacetate] showed an IC50 of 100 to 1000 nM.
Work on COCCn1cc(-c2cc3c(-c4ccc(CNC(=O)c5noc(C(C)(C)C)n5)c(C)c4)ncnn3c2)cn1 [Example 7, 5-(tert-butyl)-N-(4-(6-(1-(2-methoxyethyl)-1H-pyrazol-4-yl)pyrrolo[2,1-f][1,2,4]triazin-4-yl)-2-methylbenzyl)-1,2,4-oxadiazole-3-carboxamide] yielded an IC50 of under 100 nM.
